From patent publication US12533370B2, “Compositions and methods of potentiating antimicrobials” (priority 2016, dated 2026)
Converted amounts (≈) assume the structure as drawn.

Assays:
[1] = tested on: methicillin-resistant Staphylococcus aureus (MRSA); assay: MIC for ampicillin with and without THC on MRSA, Example 5; assay type: cell-based; conditions: read-out: MIC value
Method: (§1) In certain embodiments, the method of testing the anti-bacterial efficacy of a composition (or any test solution), comprises the following steps: (a) inoculation of bacteria (e.g. from a −80° C. stock) into 3 mL Muller Hinton (MH) medium; (b) incubation of the inoculated medium at 37° C. under agitation of 250 rpm for 18-20 hours, thus obtaining a starter culture; (c) diluting the starter culture using saline to obtain working cultures of 5*10^5 or 10^6 bacteria/mL; (d) combining the […] and the tested composition in a test container, e.g. a 96-well plate; (e) incubating the test container at 37° C. under shaking (100 rpm) for 18-20 hours; and (f) determining the viability of bacteria in the test container, thus determining the anti-bacterial efficacy of the composition, e.g. via determining the optical density (OD) of the bacterial culture. Routine calibrations and/or modifications of this method are well within the capabilities of any person of average skill in the art.
(§2) The term “minimal inhibitory concentration” or “MIC” as used herein relates to the minimal concentration of an agent, or a combination of agents, in which bacteria are substantially killed or at least not substantially grow. […]

[2] = tested on: Streptococcus pneumoniae; assay: MIC for carbenicillin with and without THC, Example 6; assay type: cell-based; conditions: agent alone, OD cutoff ≤0.1
Method: as §1, §2

[3] = tested on: S. aureus ATCC strain 25923 (gentamicin-sensitive); assay: Minimal bactericidal concentration (MBC), Example 1; assay type: cell-based, Staphylococcus aureus
Method: The goal of the current experiment was to determine the minimal bactericidal concentrations (MBC) for THC with and without PEA on S. aureus ATCC strain 25923 (gentamicin-sensitive).
• 1. Incubation of the S. aureus (from a −80° C. stock) in 3 ml Muller Hinton (MH, Difco) medium at 37° C. under agitation of 250 rpm for 18-20 hours (this culture served as a starter for the experiment); • 2. Dilution of the starter culture using saline to obtain working cultures of 5*10^5 and 10^6 C.F.U/mL bacteria, respectively. • 3. Diluting the THC (0.125 mg/mL in saline) with or without PEA or gentamicin in a 96-well plate. • 4. Incubation of the plates at 37° C. under shaking (100 rpm) for 18-20 hours. • 5. In the following day, the bacteria in the wells suspended in saline were evaluated for their C.F.U/mL to determine the MBC.

[4] = tested on: S. aureus ATCC strain 25923 (gentamicin-sensitive); assay: Minimal inhibitory concentration (MIC) for gentamicin with and without THC, Example 2; assay type: cell-based, Staphylococcus aureus; conditions: OD cutoff ≤0.1
Method: as §1, §2

[5] = tested on: S. aureus ATCC strain 25923 (gentamicin-sensitive); assay: MIC for gentamicin with and without THC, Example 3; assay type: cell-based, Staphylococcus aureus; conditions: OD cutoff ≤0.1
Method: as §1, §2

[6] = tested on: methicillin-resistant Staphylococcus aureus (MRSA); assay: MIC for gentamicin with and without THC on MRSA, Example 4; assay type: cell-based
Method: as §1, §2

[7] = tested on: established S. aureus ATCC strain 25923 (gentamicin-sensitive) biofilm; assay: MIC for gentamicin with and without THC on established biofilm, Example 10; assay type: cell-based, Staphylococcus aureus; conditions: agent alone; OD cutoff ≤0.1
Method: (§3) The term “minimal inhibitory concentration” or “MIC” as used herein relates to the minimal concentration of an agent, or a combination of agents, in which bacteria are substantially killed or at least not substantially grow. The cutoff value to determine the MIC in the experimental section was set to an optical density (OD) value of ≤0.1 after an overnight incubation of the bacteria together with the tested antibacterial agent(s).
The goal of the current experiment was to determine the minimal inhibitory concentration (MIC) for gentamicin with and without THC on an established S. aureus ATCC strain 25923 (gentamicin-sensitive) biofilm. The cutoff value to determine the MIC was set to an optical density (OD) value of ≤0.1.

[8] = tested on: MRSA/VISA clinical strain No 111; assay: MIC and Fic index for gentamicin with and without CBG, Example 7; assay type: cell-based, Staphylococcus aureus; conditions: for MIC value: agent alone, OD cutoff ≤0.1
Method: as §3
(§4) The goal of the current experiment was to determine the minimal inhibitory concentration (MIC) for gentamicin with and without CBG on methicillin-resistant Staphylococcus aureus (MRSA) and vancomycin-resistant Staphylococcus aureus (MRSA) (VISA) clinical strain No 111 from Souraski Medical Center, Tel Aviv, Israel. The cutoff value to determine the MIC was set to an optical density (OD) value of ≤0.1.
(§5) Fractional Inhibitory Concentration values (FicA and FicB) and Fic index were calculated for each combination of compounds and clinical isolate using the following standard equations for this analysis: Fic index=FicA+FicB FicA=MIC of compound A (CBG) in combination/MIC of compound A alone. FicB=MIC of compound B (gentamicin) in combination/MIC of compound B alone.
(§6) Synergy is defined as a Fic index value of ≤0.5. Indifference or no interaction will be defined as a FIC index value of >0.5 and <4. Antagonism will be defined as a FIC index value of >4. When the FIC index value is within the range of 0.5-1, the combination is considered to be non-synergistic or additive.

[9] = tested on: methicillin-resistant Staphylococcus aureus (MRSA) violent clinical strain 760330509; assay: MIC and Fic index for gentamicin with and without CBG, Example 8; assay type: cell-based; conditions: for MIC value: agent alone
Method: as §3, §5, §6
as §4, with “violent” for “and vancomycin-resistant Staphylococcus aureus (MRSA) (VISA)”, “760330509” for “No 111”
(§7) Fractional Inhibitory Concentration values (FicA and FicB) and Fic index were calculated for each combination of compounds and clinical isolate using the same calculation as in example 7.

[10] = tested on: MRSA/VISA clinical strain No 111; assay: MIC and Fic index for gentamicin with and without CBD, Example 9; assay type: cell-based, Staphylococcus aureus; conditions: for MIC value: agent alone
Method: as §3, §5, §6
as §4, with “CBD” for “CBG”
as §7

[11] = Staphylococcus aureus, ATCC25923, agent alone
[12] = Staphylococcus aureus, read-out: MIC value

## CC1(C)S[C@@H]2[C@H](NC(=O)[C@H](N)c3ccccc3)C(=O)N2[C@H]1C(=O)O [ampicillin]
[1]
  MIC: ~500 µg/mL

## CC1(C)S[C@@H]2[C@H](NC(=O)C(C(=O)O)c3ccccc3)C(=O)N2[C@H]1C(=O)O (stereo partly shown) [carbenicillin]
[2]
  MIC: ~0.2 µg/mL

## CCCCCc1cc(O)c2c(c1)OC(C)(C)[C@@H]1CCC(C)=C[C@@H]21 [THC, tetrahydrocannabinol]
[3]; Staphylococcus aureus, ATCC25923, agent alone, S. aureus ATCC 25923
  MBC: ~7.8 µg/mL (≈ 24.8 µM)
[3]; THC alone vs gentamicin alone
  fold decrease of MBC compared to gentamicin alone: 32 fold
[4]; [11]
  MIC: ~1 µg/mL
[5]; [11]
  MIC: ~2 µg/mL
[6]; [12]
  MIC: ~2 µg/mL
[1]
  MIC: ~2 µg/mL
[2]
  MIC: ~2 µg/mL
[7]
  MIC value on established biofilm: about 0.004 mg/mL

## gentamicin
[3]; agent alone, S. aureus ATCC 25923
  MBC value: 250 µg/mL
[4]; agent alone
  MIC value: about 0.001 mg/mL
[5]; agent alone
  MIC value: about 0.002 mg/mL
[6]; agent alone, OD cutoff ≤0.1
  MIC value: about 0.125 mg/mL
[8]; 64 μg/mL Gen.+1 μg/mL CBG
  FicB value (MIC of gentamicin in combination/MIC alone): 0.25
[8]; MRSA/VISA strain No 111
  MIC value: about 256 μg/mL
[8]; MRSA/VISA strain No 111, listed as Gen.
  MIC value: 256 µg/mL
[9]; 32 μg/mL Gen.+1 μg/mL CBG
  FicB value (MIC of gentamicin in combination/MIC alone): 0.25
[9]; MRSA strain 760330509, OD cutoff ≤0.1
  MIC value: about 128 μg/mL
[9]; MRSA strain 760330509, OD cutoff ≤0.1, listed as Gen.
  MIC value: 128 µg/mL
[10]; 32 μg/mL Gen.+1 μg/mL CBD
  FicB value (MIC of gentamicin in combination/MIC alone): 0.125
[10]; MRSA/VISA strain No 111, OD cutoff ≤0.1
  MIC value: about 256 μg/mL
[10]; MRSA/VISA strain No 111, OD cutoff ≤0.1, listed as Gen.
  MIC value: 256 µg/mL
[7]
  MIC value on established biofilm: over 0.002 mg/mL

## CCCCCc1cc(O)c(C/C=C(\C)CCC=C(C)C)c(O)c1 [CBG, cannabigerol]
[8]; 64 μg/mL Gen.+1 μg/mL CBG
  FicA value (MIC of CBG in combination/MIC alone): 0.125
[8]; MRSA/VISA strain No 111
  MIC value for CBG alone: about 8 n g/mL
[8]; [12]
  MIC: 8 µg/mL
[9]; 32 μg/mL Gen.+1 μg/mL CBG
  FicA value (MIC of CBG in combination/MIC alone): 0.125
[9]; Staphylococcus aureus, MRSA, read-out: MIC value, agent alone, MRSA strain 760330509, OD cutoff ≤0.1
  MIC: ~8 µg/mL

## C=C(C)[C@@H]1CCC(C)=C[C@H]1c1c(O)cc(CCCCC)cc1O [CBD, cannabidiol]
[10]; 32 μg/mL Gen.+1 μg/mL CBD
  FicA value (MIC of CBD in combination/MIC alone): 0.125
[10]; Staphylococcus aureus, read-out: MIC value, agent alone, MRSA/VISA strain No 111, OD cutoff ≤0.1
  MIC: ~8 µg/mL
